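These data come from cells grown in 96-well plates and exposed to compound for 48 hours at five concentrations. Abbreviation: GI50, concentration required for 50% inhibition of growth.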 Activity calls are given as the source filed them. Cut-off read from the data, not from the text of the source: active = GI50 up to about 1.1 µM and inactive = higher.
What was measured:
Test in all cases: inhibition of tumour cell growth, NCI panel, 48 h
CAKI-1 = system: CAKI-1
HOP-62 = system: HOP-62
MOLT-4 = system: MOLT-4
LOX IMVI = system: LOX IMVI
M14 = system: M14
HCC 2998 = system: HCC 2998
A498 = system: A498
LXFL 529 = system: LXFL 529
HCT-15 = system: HCT-15
SF-295 = system: SF-295
TK-10 = system: TK-10
HOP-18 = system: HOP-18
786-0 = system: 786-0
HOP-92 = system: HOP-92
SK-MEL-5 = system: SK-MEL-5
SN12C = system: SN12C
RXF 393 = system: RXF 393
KM-20L2 = system: KM-20L2
DLD-1 = system: DLD-1
UACC-62 = system: UACC-62
M19-MEL = system: M19-MEL
Malme-3M = system: Malme-3M
NCI-H23 = system: NCI-H23
SK-MEL-2 = system: SK-MEL-2
OVCAR-8 = system: OVCAR-8
SF-268 = system: SF-268
RXF 631 = system: RXF 631
SK-OV-3 = system: SK-OV-3
XF498 = system: XF498
OVCAR-3 = system: OVCAR-3
UACC-257 = system: UACC-257
SR = system: SR
SK-MEL-28 = system: SK-MEL-28
NCI-H226 = system: NCI-H226
OVCAR-4 = system: OVCAR-4
OVCAR-5 = system: OVCAR-5
UO-31 = system: UO-31
U-251 = system: U-251
ACHN = system: ACHN
K562 = system: K562
SF-539 = system: SF-539
COLO 205 = system: COLO 205
NCI-H460 = system: NCI-H460
SW-620 = system: SW-620
IGROV-1 = system: IGROV-1
HT-29 = system: HT-29
EKVX = system: EKVX
HCT-116 = system: HCT-116
DMS-114 = system: DMS-114
SNB-75 = system: SNB-75
SNB-19 = system: SNB-19
A549 = system: A549
KM12 = system: KM12
RPMI-8226 = system: RPMI-8226
SNB-78 = system: SNB-78
DMS-273 = system: DMS-273
HL-60 = system: HL-60
NCI-H522 = system: NCI-H522
CCRF-CEM = system: CCRF-CEM

CC(C)(Oc1ccc(/C=C/C(=O)c2ccc(Cl)cc2)cc1)C(=O)Nc1c(Cl)cccc1Cl
GI50 (CAKI-1): 23.7 µM (inactive) | GI50 (HOP-62): 72.3 µM (inactive) | GI50 (MOLT-4): 6.32 µM (inactive) | GI50 (LOX IMVI): 16 µM (inactive) | GI50 (M14): 17.5 µM (inactive) | GI50 (HCC 2998): 25.4 µM (inactive) | GI50 (A498): 17.1 µM (inactive) | GI50 (LXFL 529): 13.9 µM (inactive) | GI50 (HCT-15): 15.1 µM | GI50 (SF-295): 25.8 µM (inactive) | GI50 (TK-10): 59.4 µM (inactive) | GI50 (HOP-18): 80.4 µM (inactive) | GI50 (786-0): 19.6 µM (inactive) | GI50 (HOP-92): 15.7 µM (inactive) | GI50 (SK-MEL-5): 18.2 µM (inactive) | GI50 (SN12C): 15 µM (inactive) | GI50 (RXF 393): 20.6 µM (inactive) | GI50 (KM-20L2): 20.3 µM (inactive) | GI50 (DLD-1): 13.7 µM (inactive) | GI50 (UACC-62): 17.3 µM (inactive) | GI50 (M19-MEL): 14.1 µM (inactive) | GI50 (Malme-3M): 19.7 µM (inactive) | GI50 (NCI-H23): 17.3 µM (inactive) | GI50 (SK-MEL-2): 42.3 µM (inactive) | GI50 (OVCAR-8): 14.1 µM (inactive) | GI50 (SF-268): 28.5 µM (inactive) | GI50 (RXF 631): 19.5 µM (inactive) | GI50 (SK-OV-3): 34 µM (inactive) | GI50 (XF498): 17.7 µM (inactive) | GI50 (OVCAR-3): 19.5 µM (inactive) | GI50 (UACC-257): 30.9 µM (inactive) | GI50 (SR): > 100 µM (inactive) | GI50 (SK-MEL-28): 16.1 µM (inactive) | GI50 (NCI-H226): 25.5 µM (inactive) | GI50 (OVCAR-4): 23.4 µM (inactive) | GI50 (OVCAR-5): 41.1 µM (inactive) | GI50 (UO-31): 24.4 µM (inactive) | GI50 (U-251): 12.5 µM (inactive) | GI50 (ACHN): 20.9 µM (inactive) | GI50 (K562): > 100 µM (inactive) | GI50 (SF-539): 14.6 µM (inactive) | GI50 (COLO 205): 17.8 µM (inactive) | GI50 (NCI-H460): 31.6 µM (inactive) | GI50 (SW-620): 12.8 µM (inactive) | GI50 (IGROV-1): 26.9 µM (inactive) | GI50 (HT-29): 13.3 µM (inactive) | GI50 (EKVX): 57.8 µM (inactive) | GI50 (HCT-116): 6.03 µM (inactive) | GI50 (DMS-114): 11.6 µM (inactive) | GI50 (SNB-75): 29.4 µM (inactive) | GI50 (SNB-19): 33.8 µM (inactive) | GI50 (A549): 31.4 µM (inactive) | GI50 (KM12): 11.8 µM (inactive)

Cc1ccc(S(=O)(=O)N/N=C(\c2nc3ccc(Cl)cc3nc2O)C(O)c2cccc([N+](=O)[O-])c2)cc1 (stereo not drawn)
GI50 (CAKI-1): > 100 µM (inactive) | GI50 (HOP-62): > 100 µM (inactive) | GI50 (MOLT-4): > 100 µM (inactive) | GI50 (LOX IMVI): > 100 µM (inactive) | GI50 (M14): > 100 µM (inactive) | GI50 (HCC 2998): > 100 µM (inactive) | GI50 (A498): > 100 µM (inactive) | GI50 (LXFL 529): > 100 µM (inactive) | GI50 (HCT-15): > 100 µM | GI50 (SF-295): > 100 µM (inactive) | GI50 (TK-10): > 100 µM (inactive) | GI50 (HOP-18): > 100 µM (inactive) | GI50 (786-0): > 100 µM (inactive) | GI50 (HOP-92): > 100 µM (inactive) | GI50 (SK-MEL-5): > 100 µM (inactive) | GI50 (SN12C): > 100 µM (inactive) | GI50 (RXF 393): > 100 µM (inactive) | GI50 (KM-20L2): > 100 µM (inactive) | GI50 (RPMI-8226): 71 µM (inactive) | GI50 (DLD-1): > 100 µM (inactive) | GI50 (UACC-62): > 100 µM (inactive) | GI50 (M19-MEL): > 100 µM (inactive) | GI50 (Malme-3M): > 100 µM (inactive) | GI50 (NCI-H23): > 100 µM (inactive) | GI50 (SK-MEL-2): > 100 µM (inactive) | GI50 (OVCAR-8): > 100 µM (inactive) | GI50 (SF-268): > 100 µM (inactive) | GI50 (SNB-78): > 100 µM (inactive) | GI50 (RXF 631): > 100 µM (inactive) | GI50 (DMS-273): > 100 µM (inactive) | GI50 (SK-OV-3): > 100 µM (inactive) | GI50 (XF498): > 100 µM (inactive) | GI50 (OVCAR-3): > 100 µM (inactive) | GI50 (UACC-257): > 100 µM (inactive) | GI50 (SR): > 100 µM (inactive) | GI50 (SK-MEL-28): > 100 µM (inactive) | GI50 (NCI-H226): > 100 µM (inactive) | GI50 (OVCAR-4): > 100 µM (inactive) | GI50 (OVCAR-5): > 100 µM (inactive) | GI50 (UO-31): > 100 µM (inactive) | GI50 (U-251): > 100 µM (inactive) | GI50 (ACHN): > 100 µM (inactive) | GI50 (K562): > 100 µM (inactive) | GI50 (SF-539): > 100 µM (inactive) | GI50 (HL-60): > 100 µM (inactive) | GI50 (NCI-H522): 63.4 µM (inactive) | GI50 (COLO 205): > 100 µM (inactive) | GI50 (NCI-H460): > 100 µM (inactive) | GI50 (SW-620): > 100 µM (inactive) | GI50 (IGROV-1): > 100 µM (inactive) | GI50 (HT-29): > 100 µM (inactive) | GI50 (EKVX): > 100 µM (inactive) | GI50 (HCT-116): > 100 µM (inactive) | GI50 (DMS-114): > 100 µM (inactive) | GI50 (SNB-75): > 100 µM (inactive) | GI50 (SNB-19): > 100 µM (inactive) | GI50 (A549): > 100 µM (inactive) | GI50 (KM12): > 100 µM (inactive) | GI50 (CCRF-CEM): 52.7 µM (inactive)

CCOC1c2nc3ccccc3nc2-c2ccccc2N1C(C)=O (stereo not drawn)
GI50 (CAKI-1): > 100 µM (inactive) | GI50 (HOP-62): > 100 µM (inactive) | GI50 (MOLT-4): > 100 µM (inactive) | GI50 (M14): > 100 µM (inactive) | GI50 (HCC 2998): > 100 µM (inactive) | GI50 (A498): > 100 µM (inactive) | GI50 (LXFL 529): 70.6 µM (inactive) | GI50 (HCT-15): > 100 µM | GI50 (SF-295): 69.3 µM (inactive) | GI50 (HOP-18): 51.6 µM (inactive) | GI50 (786-0): 56.8 µM (inactive) | GI50 (HOP-92): 29.2 µM (inactive) | GI50 (SN12C): > 100 µM (inactive) | GI50 (RXF 393): 28.3 µM (inactive) | GI50 (KM-20L2): > 100 µM (inactive) | GI50 (RPMI-8226): > 100 µM (inactive) | GI50 (DLD-1): > 100 µM (inactive) | GI50 (UACC-62): > 100 µM (inactive) | GI50 (M19-MEL): > 100 µM (inactive) | GI50 (NCI-H23): > 100 µM (inactive) | GI50 (SK-MEL-2): 81.7 µM (inactive) | GI50 (OVCAR-8): 48.2 µM (inactive) | GI50 (SNB-78): > 100 µM (inactive) | GI50 (RXF 631): 74.5 µM (inactive) | GI50 (DMS-273): 93.3 µM (inactive) | GI50 (SK-OV-3): > 100 µM (inactive) | GI50 (XF498): > 100 µM (inactive) | GI50 (OVCAR-3): > 100 µM (inactive) | GI50 (UACC-257): > 100 µM (inactive) | GI50 (SR): > 100 µM (inactive) | GI50 (SK-MEL-28): > 100 µM (inactive) | GI50 (OVCAR-4): 74.6 µM (inactive) | GI50 (UO-31): > 100 µM (inactive) | GI50 (U-251): > 100 µM (inactive) | GI50 (ACHN): > 100 µM (inactive) | GI50 (K562): 83 µM (inactive) | GI50 (SF-539): > 100 µM (inactive) | GI50 (HL-60): > 100 µM (inactive) | GI50 (COLO 205): > 100 µM (inactive) | GI50 (NCI-H460): > 100 µM (inactive) | GI50 (SW-620): > 100 µM (inactive) | GI50 (IGROV-1): > 100 µM (inactive) | GI50 (HT-29): > 100 µM (inactive) | GI50 (EKVX): > 100 µM (inactive) | GI50 (HCT-116): > 100 µM (inactive) | GI50 (DMS-114): > 100 µM (inactive) | GI50 (SNB-75): 46.2 µM (inactive) | GI50 (SNB-19): > 100 µM (inactive) | GI50 (A549): > 100 µM (inactive) | GI50 (KM12): > 100 µM (inactive) | GI50 (CCRF-CEM): > 100 µM (inactive)
